The target in the experiment is T1, AR-F764L (Homo sapiens, UniProt P10275, F765L).
T1 construct: expressed in transfected cells
T1 sequence (P10275 1-920 F765L): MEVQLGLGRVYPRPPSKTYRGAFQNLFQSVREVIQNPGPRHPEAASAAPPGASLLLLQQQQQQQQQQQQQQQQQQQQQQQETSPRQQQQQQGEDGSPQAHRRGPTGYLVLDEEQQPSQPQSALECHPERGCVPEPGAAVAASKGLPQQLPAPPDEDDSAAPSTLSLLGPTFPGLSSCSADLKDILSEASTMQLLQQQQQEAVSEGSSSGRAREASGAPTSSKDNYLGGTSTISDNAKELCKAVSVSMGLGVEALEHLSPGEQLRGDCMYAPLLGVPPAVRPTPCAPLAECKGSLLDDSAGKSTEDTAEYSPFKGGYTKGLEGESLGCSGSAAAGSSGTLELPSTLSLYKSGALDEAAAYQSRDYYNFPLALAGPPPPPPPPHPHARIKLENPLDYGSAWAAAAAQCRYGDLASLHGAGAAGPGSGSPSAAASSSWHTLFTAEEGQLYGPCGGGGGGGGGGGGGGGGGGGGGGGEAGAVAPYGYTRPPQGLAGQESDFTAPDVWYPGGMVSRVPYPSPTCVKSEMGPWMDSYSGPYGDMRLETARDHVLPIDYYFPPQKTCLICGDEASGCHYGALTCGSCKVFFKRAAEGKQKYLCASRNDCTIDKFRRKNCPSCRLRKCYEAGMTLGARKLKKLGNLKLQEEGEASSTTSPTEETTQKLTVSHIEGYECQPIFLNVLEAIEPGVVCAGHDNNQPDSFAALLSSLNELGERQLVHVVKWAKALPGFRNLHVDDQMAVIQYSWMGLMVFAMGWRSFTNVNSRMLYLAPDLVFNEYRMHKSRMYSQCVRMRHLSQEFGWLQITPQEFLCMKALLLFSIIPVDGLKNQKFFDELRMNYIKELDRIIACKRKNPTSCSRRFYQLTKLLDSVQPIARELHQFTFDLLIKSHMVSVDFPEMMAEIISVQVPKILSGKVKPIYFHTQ
The format is cell-based. The protocol: To determine the global effect of the various AIS mutations on AR signaling, each was analyzed using HCA. This technology allows simultaneous quantification of AR protein expression, nuclear translocation, subnuclear patterning, and transcriptional activity. The analysis was done in HeLa cell lines stably transfected with wild type or mutant ARs fused with green fluorescent protein, or using AR immunofluorescence in primary cultures of genital skin fibroblasts generated from foreskin biopsies of historical AIS patients, or of normal neonates undergoing circumcision at birth. To prevent the effects of receptor over-expression, stable HeLa cells were carefully selected to express AR levels similar to LNCaP as previously described. Prior to ligand treatment, HeLa cells were transfected with the pARR2PB-dsRED2skl reporter plasmid, consisting of the AR responsive promoter ARR2PB [31] driving expression of the red fluorescent protein reporter dsRED2skl engineered to target peroxisomes.
For studies utilizing HeLa GFP-AR cell lines, twenty-four hours before transfection with pARR2PB-dsRED2skl, cells were plated onto 100 mm plastic dishes in medium supplemented with 5% charcoal-stripped and dialyzed-FBS. Transient introduction of the pARR-2PB-dsRED2skl reporter construct was performed using 6.0 µg reporter plasmid and 6.0 µg carrier DNA (BlueScript, Stratagene, San Diego, CA) using Transfectin (Biorad) following standard protocols. After 8-hour incubation, DNA/lipid complexes were removed. Cells were then trypsinized and replated at 10,000 cells per well in Nunc poly-D-lysine treated 96-well optical glass bottom plates and incubated an additional 12 hours to allow for cell adhesion. […] Compound dilutions and final addition to multi-well plates were performed using a Beckman Biomek NX robotic platform to ensure repeatability from experiment to experiment. After incubation was complete, using the Biomek NX robot, plates were washed with PBS and fixed for 20 min at RT in 4% formaldehyde prepared in CSK buffer (80 mM potassium PIPES, pH 6.8, 5 mM EGTA, 2 mM MgCl2). After fixation, cells were briefly permeabilized (5 min) with 0.5% Triton-X and prepared for imaging by washing in PBS, aspirating the washed solution, and adding a 1 ng/ml DAPI solution to stain DNA and a generic protein stain (CellMask, Invitrogen) to facilitate cell and nuclear image segmentation. Cells were imaged in PBS.
Cells were imaged using the Cell Lab IC-100 Image Cytometer (IC-100; Beckman Coulter) platform that consists of 1) Nikon Eclipse TE2000-U Inverted Microscope (Nikon; Melville, NY); 2) Chroma 82000 triple band filter set (Chroma; Brattleboro, VT); 3) an imaging camera: Hamamatsu ORCA-ER Digital CCD camera (Hamamatsu; Bridgewater, NJ); and 4) a focusing camera: Photonics COHU Progressive scan camera (Photonics; Oxford, MA). […] In general, 49 to 64 images were captured per well for image analysis.
While our initial AR studies using HTM were based upon CytoShop (Beckman-Coulter), [15], [33], these approaches were refined in the current work with the more robust server-client Pipeline Pilot image analysis platform (Basic and Advanced Imagine Collections, Pipeline Pilot 7.5, Accelrys, San Diego). Initially, the background signal was removed from all images using plate- and channel-specific correction images, generated by the sum projection of >600 randomly selected images for each channel from the image set. This allows for a pixel-by-pixel background subtraction that compensates any consistent uneven background artifacts in the image set. Furthermore, users are able to customize the degree of background subtraction by applying a multiplier to each correction image, useful for identification of objects such as nuclei or cell borders. After background subtraction, nuclear masks were generated using a combination of non-linear least squares and watershed-from-markers image manipulations of the DAPI images (Fig. 1B).

Each structure is given as a SMILES string.

With `C[C@@H]1CC2=CC(=O)CC[C@@H]2[C@H]2CC[C@@]3(C)[C@@H](CC[C@]3(C)O)[C@@H]21` [Mb, Mibolerone], the “recovery of AR-F764 activity, % of control” value (AR-F764L, discussion, test not specified) was 45%. In addition, for the setting “HeLa AR-F764L”, the hyperspeckling response is recorded as 132 fold increase and the “induction of transcriptional activity” value is on record as 36 fold. Besides, the “increase in the percent of nuclear GFP signal” value (HeLa AR-F764L, vs untreated) is 31%. The “Nuclear Translocation, Max” value (HeLa F764L, % signal present in the nucleus) came to 73.2±0.8%. The “Hyperspeckling, Max” value (HeLa F764L, absolute numerical measurement) amounted to 965±8. In addition, the “Transcriptional Activity, Max” value (HeLa F764L, pARR2PB-dsRED2skl reporter, absolute numerical measurement) came to 92.9±2.2.
